Measured values published in ChEMBL document CHEMBL5390253, “Discovery of Selective and Potent Macrocyclic CDK9 Inhibitors for the Treatment of Osimertinib-Resistant Non-Small-Cell Lung Cancer” (J Med Chem, 2023).
The source made the active and inactive calls. No cut-off for these calls is given here.

Tests used:
[1] = biological target: CDK9/cyclin T1 (Homo sapiens, UniProt P50750); assay: Inhibition of CDK9/Cyclin-T1 (unknown origin) preincubated for 10 mins followed by substrate addition and measured after 60 mins in presence of ATP by ADP-Glo reagent based assay; format: protein-complex assay
CDK9/cyclin T1, sequence (O60563 whole entry): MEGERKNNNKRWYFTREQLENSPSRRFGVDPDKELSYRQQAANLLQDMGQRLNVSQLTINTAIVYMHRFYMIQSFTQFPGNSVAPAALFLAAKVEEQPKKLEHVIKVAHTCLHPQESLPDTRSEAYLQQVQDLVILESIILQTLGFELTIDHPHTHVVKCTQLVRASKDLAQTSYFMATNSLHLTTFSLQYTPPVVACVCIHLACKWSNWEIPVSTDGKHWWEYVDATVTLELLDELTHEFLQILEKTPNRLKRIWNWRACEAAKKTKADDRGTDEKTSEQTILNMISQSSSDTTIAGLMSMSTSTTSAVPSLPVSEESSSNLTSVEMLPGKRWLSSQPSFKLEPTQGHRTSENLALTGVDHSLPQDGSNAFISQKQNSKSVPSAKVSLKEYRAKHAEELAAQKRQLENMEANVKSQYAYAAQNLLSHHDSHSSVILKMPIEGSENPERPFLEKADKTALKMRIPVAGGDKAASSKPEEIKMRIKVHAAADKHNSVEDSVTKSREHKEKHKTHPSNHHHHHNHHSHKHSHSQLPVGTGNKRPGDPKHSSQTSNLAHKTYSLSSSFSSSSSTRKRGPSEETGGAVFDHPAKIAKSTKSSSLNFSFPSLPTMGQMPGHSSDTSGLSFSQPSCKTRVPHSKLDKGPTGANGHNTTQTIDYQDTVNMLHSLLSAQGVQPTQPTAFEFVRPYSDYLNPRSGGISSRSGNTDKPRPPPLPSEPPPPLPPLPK
CDK9/cyclin T1, sequence (P50750 whole entry): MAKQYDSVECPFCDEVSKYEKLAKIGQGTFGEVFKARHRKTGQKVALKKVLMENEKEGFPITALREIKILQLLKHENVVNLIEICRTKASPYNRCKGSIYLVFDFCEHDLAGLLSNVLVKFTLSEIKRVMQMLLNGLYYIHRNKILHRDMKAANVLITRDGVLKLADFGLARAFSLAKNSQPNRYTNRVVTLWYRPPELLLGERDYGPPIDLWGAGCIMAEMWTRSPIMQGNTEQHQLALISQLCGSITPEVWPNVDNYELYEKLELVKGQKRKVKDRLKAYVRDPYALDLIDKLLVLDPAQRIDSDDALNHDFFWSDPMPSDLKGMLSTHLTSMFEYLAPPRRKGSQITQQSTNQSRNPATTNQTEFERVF

[2] = biological target: CDK2/Cyclin A2 (Homo sapiens, UniProt P24941); assay: Inhibition of CDK2/Cyclin A2 (unknown origin) preincubated for 10 mins followed by substrate addition and measured after 60 mins in presence of ATP by ADP-Glo reagent based assay; format: protein-complex assay
[3] = tested on: NCI-H1975; assay: Antiproliferative activity against human NCI-H1975 cells incubated for 72 hrs by MTT assay; format: functional, cell-based; conditions: NCI-H1975, 72 h
[4] = Antiproliferative activity against human Osimertinib-resistant NCI-H1975 cell incubated for 72 hrs by MTT assay; format: functional, cell-based; conditions: NCI-H1975, 72 h
[5] = tested on: NCI-H1975; assay: Downregulation of Mcl-1 level in human Osimertinib-resistant NCI-H1975 cell at 2 uM measured after 8 hrs by Western blotting analysis; format: functional, cell-based
[6] = Induction of apoptosis in human Osimertinib-resistant NCI-H1975 cell assessed as viable cells at 500 nM measured after 16 hrs by Annexin V-FITC and PI staining based analysis (reference value: 94.9%); format: functional; conditions: read-out: Activity
[7] = Induction of apoptosis in human Osimertinib-resistant NCI-H1975 cell assessed as viable cells at 2000 nM measured after 16 hrs by Annexin V-FITC and PI staining based analysis (reference value: 94.9%); format: functional; conditions: read-out: Activity
[8] = Induction of apoptosis in human Osimertinib-resistant NCI-H1975 cell assessed as early apoptotic cells at 500 nM measured after 16 hrs by Annexin V-FITC and PI staining based analysis (reference value: 1.78%); format: functional
[9] = Induction of apoptosis in human Osimertinib-resistant NCI-H1975 cell assessed as early apoptotic cells at 2000 nM measured after 16 hrs by Annexin V-FITC and PI staining based analysis (reference value: 1.78%); format: functional
[10] = Induction of apoptosis in human Osimertinib-resistant NCI-H1975 cell assessed as late apoptotic cells at 500 nM measured after 16 hrs by Annexin V-FITC and PI staining based analysis (reference value: 2.84%); format: functional
[11] = Induction of apoptosis in human Osimertinib-resistant NCI-H1975 cell assessed as late apoptotic cells at 2000 nM measured after 16 hrs by Annexin V-FITC and PI staining based analysis (reference value: 2.84%); format: functional
[12] = Induction of apoptosis in human Osimertinib-resistant NCI-H1975 cell assessed as necrotic cells at 500 nM measured after 16 hrs by Annexin V-FITC and PI staining based analysis (reference value: 0.50%); format: functional
[13] = Induction of apoptosis in human Osimertinib-resistant NCI-H1975 cell assessed as necrotic cells at 2000 nM measured after 16 hrs by Annexin V-FITC and PI staining based analysis (reference value: 0.50%); format: functional
[14] = cells; conditions: Homo sapiens, Osimertinib-resistant HCC827AR cell, 72 h
[15] = tested on: HCC827; assay: Antiproliferative activity against human HCC827 cells incubated for 72 hrs by MTT assay; format: functional, cell-based; conditions: HCC827, 72 h
[16] = biological target: CDK9/cyclin T1 (Homo sapiens) (UniProt O60563+P50750); assay: Inhibition of CDK9/Cyclin-T1 (unknown origin) at 20 nM preincubated for 10 mins followed by substrate addition and measured after 60 mins in presence of ATP by ADP-Glo reagent based assay relative to control; format: protein-complex assay; conditions: time 70.0 min
[17] = biological target: CDK2/Cyclin A2 (Homo sapiens) (UniProt P24941+P20248); assay: Inhibition of CDK2/Cyclin A2 (unknown origin) at 100 nM preincubated for 10 mins followed by substrate addition and measured after 60 mins in presence of ATP by ADP-Glo reagent based assay relative to control; format: protein-complex assay; conditions: time 70.0 min
[18] = biological target: Receptor-type tyrosine-protein kinase FLT3 (Homo sapiens) (UniProt P36888); assay: Inhibition of FLT3 (unknown origin) at 100 nM preincubated for 10 mins followed by substrate addition and measured after 60 mins in presence of ATP by ADP-Glo reagent based assay relative to control; conditions: time 70.0 min
Receptor-type tyrosine-protein kinase FLT3 (Homo sapiens), sequence (P36888 whole entry): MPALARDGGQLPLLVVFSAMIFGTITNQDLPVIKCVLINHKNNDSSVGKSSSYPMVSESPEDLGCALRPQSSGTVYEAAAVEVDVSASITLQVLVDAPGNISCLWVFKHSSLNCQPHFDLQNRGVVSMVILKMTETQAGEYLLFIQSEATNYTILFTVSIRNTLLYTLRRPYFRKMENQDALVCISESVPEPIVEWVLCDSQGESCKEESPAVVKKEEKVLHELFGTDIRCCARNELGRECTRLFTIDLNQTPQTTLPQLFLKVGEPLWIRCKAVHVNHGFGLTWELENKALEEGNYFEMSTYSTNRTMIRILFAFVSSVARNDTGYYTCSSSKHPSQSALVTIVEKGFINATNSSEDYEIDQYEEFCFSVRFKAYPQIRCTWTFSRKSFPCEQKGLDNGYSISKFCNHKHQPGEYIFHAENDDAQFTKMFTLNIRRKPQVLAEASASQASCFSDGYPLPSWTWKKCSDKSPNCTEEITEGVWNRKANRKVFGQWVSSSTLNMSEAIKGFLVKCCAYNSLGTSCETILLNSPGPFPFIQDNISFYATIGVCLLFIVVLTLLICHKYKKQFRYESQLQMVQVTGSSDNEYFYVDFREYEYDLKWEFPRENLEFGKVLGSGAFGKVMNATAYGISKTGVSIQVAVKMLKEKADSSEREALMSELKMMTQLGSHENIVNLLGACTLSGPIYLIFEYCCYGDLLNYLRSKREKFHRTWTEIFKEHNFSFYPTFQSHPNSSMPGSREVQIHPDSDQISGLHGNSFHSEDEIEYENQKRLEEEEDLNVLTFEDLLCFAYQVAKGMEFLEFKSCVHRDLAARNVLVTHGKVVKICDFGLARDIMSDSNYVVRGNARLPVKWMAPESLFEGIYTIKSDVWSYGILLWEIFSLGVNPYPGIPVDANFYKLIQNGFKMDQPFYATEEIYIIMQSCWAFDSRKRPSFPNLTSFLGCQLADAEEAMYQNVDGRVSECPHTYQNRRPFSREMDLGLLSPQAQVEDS

[19] = biological target: Tyrosine-protein kinase JAK2 (Homo sapiens) (UniProt O60674); assay: Inhibition of JAK2 (unknown origin) at 100 nM preincubated for 10 mins followed by substrate addition and measured after 60 mins in presence of ATP by ADP-Glo reagent based assay relative to control; conditions: time 70.0 min
Tyrosine-protein kinase JAK2 (Homo sapiens), sequence (O60674 whole entry): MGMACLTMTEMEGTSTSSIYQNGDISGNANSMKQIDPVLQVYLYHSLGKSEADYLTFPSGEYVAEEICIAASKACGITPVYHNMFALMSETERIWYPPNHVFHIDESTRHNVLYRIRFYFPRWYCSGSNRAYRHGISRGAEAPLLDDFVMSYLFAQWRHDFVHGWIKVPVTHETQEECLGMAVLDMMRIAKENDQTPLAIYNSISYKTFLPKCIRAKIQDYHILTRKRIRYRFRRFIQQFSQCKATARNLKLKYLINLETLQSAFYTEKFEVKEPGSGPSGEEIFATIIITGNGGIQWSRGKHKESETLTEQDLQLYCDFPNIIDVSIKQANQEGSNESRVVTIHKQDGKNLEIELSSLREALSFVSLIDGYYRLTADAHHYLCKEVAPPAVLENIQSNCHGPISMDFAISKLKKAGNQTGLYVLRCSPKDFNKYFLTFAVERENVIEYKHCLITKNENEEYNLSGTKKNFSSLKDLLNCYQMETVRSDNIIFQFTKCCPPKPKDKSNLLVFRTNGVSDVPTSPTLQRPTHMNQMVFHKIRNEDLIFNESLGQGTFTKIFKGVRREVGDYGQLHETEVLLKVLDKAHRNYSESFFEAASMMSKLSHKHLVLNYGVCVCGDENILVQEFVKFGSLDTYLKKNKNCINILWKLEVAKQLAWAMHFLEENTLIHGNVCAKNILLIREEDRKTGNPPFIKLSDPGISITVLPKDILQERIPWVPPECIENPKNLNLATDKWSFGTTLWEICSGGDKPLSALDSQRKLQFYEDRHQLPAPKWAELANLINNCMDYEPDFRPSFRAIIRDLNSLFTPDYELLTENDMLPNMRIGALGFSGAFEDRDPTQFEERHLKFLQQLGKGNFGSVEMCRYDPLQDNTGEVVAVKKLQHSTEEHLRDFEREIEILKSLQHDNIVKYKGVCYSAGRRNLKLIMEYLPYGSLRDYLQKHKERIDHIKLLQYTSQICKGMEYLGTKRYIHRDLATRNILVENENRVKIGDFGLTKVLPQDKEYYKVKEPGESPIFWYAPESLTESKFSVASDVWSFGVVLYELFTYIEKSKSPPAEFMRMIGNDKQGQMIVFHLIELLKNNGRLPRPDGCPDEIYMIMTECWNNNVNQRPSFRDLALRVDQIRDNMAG

[20] = Downregulation of Mcl-1 in human NCI-H1975 cells at 500 nM relative to control; format: functional
[21] = tested on: HCC827; assay: Downregulation of Mcl-1 level in human HCC827 cells measured after 8 hrs by Western blotting analysis; format: functional, cell-based; conditions: dose <= 0.5 µM
[22] = tested on: NCI-H1975; assay: Downregulation of Mcl-1 level in human NCI-H1975 cells measured after 8 hrs by Western blotting analysis; format: functional, cell-based; conditions: dose <= 0.5 µM
[23] = tested on: Osimertinib-resistant HCC827AR cell; assay: Downregulation of Mcl-1 level in human Osimertinib-resistant HCC827 cell at upto 0.5 uM measured after 8 hrs by Western blotting analysis; format: functional, cell-based
[24] = tested on: NCI-H1975; assay: Downregulation of Mcl-1 level in human Osimertinib-resistant NCI-H1975 cell at upto 0.5 uM measured after 8 hrs by Western blotting analysis; format: functional, cell-based
[25] = Antiproliferative activity against human Osimertinib-resistant NCI-H1975 cell assessed as cell growth inhibition at 125 nM incubated for 72 hrs by MTT assay relative to control; format: functional; design: scale not given: the % may be the effect or the level left
[26] = Induction of apoptosis in human Osimertinib-resistant NCI-H1975 cell assessed as viable cells at 125 nM measured after 16 hrs by Annexin V-FITC and PI staining based analysis (reference value: 94.9%); format: functional; conditions: read-out: Activity
[27] = Induction of apoptosis in human Osimertinib-resistant NCI-H1975 cell assessed as early apoptotic cells at 125 nM measured after 16 hrs by Annexin V-FITC and PI staining based analysis (Rvb =1.78%); format: functional
[28] = Induction of apoptosis in human Osimertinib-resistant NCI-H1975 cell assessed as late apoptotic cells at 125 nM measured after 16 hrs by Annexin V-FITC and PI staining based analysis (Rvb =2.84%); format: functional
[29] = Induction of apoptosis in human Osimertinib-resistant NCI-H1975 cell assessed as necrotic cells at 125 nM measured after 16 hrs by Annexin V-FITC and PI staining based analysis (reference value: 0.50%); format: functional

In the case of `O=C(NCCN1CCOCC1)c1ccc2cc1COCCCCOCc1cc(ccc1F)-c1nc(ncc1F)N2`, the IC50 [1] is reported as 0.0077 µM, the IC50 [2] is reported as 0.14 µM and the IC50 [3] is reported as 0.613 µM.

For `COc1cc(F)ccc1-c1ncnc(Nc2cccc(C[S@](C)(=N)=O)c2)n1` [ATUVECICLIB], the IC50 [4] was 1.08 µM, the Activity [5] was “Active” and the viability at 0.5 µM [6] was 91.3%. For the same compound, the viability at 2 µM [7] was 91.9%, the Activity [8] was 3.16% and the Activity [9] was 2.58%. For the same compound, the Activity [10] was 4.49%, the Activity [11] was 3.66% and the Activity [12] was 1.06%. It also gave an Activity [13] of 1.84% and an IC50 [14] of 0.99 µM.

`O=C(c1ccc2cc1OCCCCOc1cc(ccc1F)-c1nc(ncc1F)N2)N1CCNCC1` showed an IC50 [15] of 2.47 µM, an IC50 [3] of 1.05 µM and an inhibition [16] of 45.7%. It also gave an inhibition [17] of 32.9%.

`O=C(NC1CCOCC1)c1ccc2cc1OCCCCOc1cc(ccc1F)-c1nc(ncc1F)N2` gave an inhibition [18] of 60.9%, an inhibition [19] of 73.2% and an IC50 [1] of 0.0028 µM. The IC50 [2] was 0.0951 µM, the IC50 [15] was 0.181 µM and the IC50 [3] was 0.283 µM. For the same compound, the Activity [20] was 99%.

Work on `O=C(NC1CCC(N2CCOCC2)CC1)c1ccc2cc1OCCCCCCOc1cc(ccc1F)-c1nc(ncc1F)N2` (stereo unspecified) yielded an IC50 [1] of 0.002 µM, an IC50 [2] of 0.715 µM and an IC50 [15] of 0.421 µM. The IC50 [3] was 0.814 µM and the Activity [20] was 64.6%.

Compound `O=C(NC1CCCNCC1)c1ccc2cc1OCCCCOc1cc(ccc1F)-c1nc(ncc1F)N2` (stereo unspecified) has an IC50 [1] of 0.0031 µM, an IC50 [2] of 0.0543 µM and an IC50 [15] of 0.403 µM. The IC50 [3] was 0.116 µM and the Activity [20] was 21.1%.

Compound `O=C(NC1CCN(C2CCOCC2)CC1)c1ccc2cc1OCCCCCCOc1cc(ccc1F)-c1nc(ncc1F)N2` has an IC50 [1] of 0.0026 µM, an IC50 [2] of 0.117 µM and an IC50 [15] of 0.255 µM. The IC50 [3] was 0.373 µM and the Activity [20] was 54.4%.

For `COc1cc(F)ccc1-c1ncnc(Nc2ccc(C(=O)NCCN(C)C)cc2)n1`, the IC50 [1] was 0.0031 µM, the IC50 [2] was 0.024 µM and the IC50 [15] was 340 µM. For the same compound, the IC50 [3] was 254 µM.

In the case of `O=C(c1ccc2cc1OCCCCOc1cc(ccc1F)-c1nc(ncc1F)N2)N1CCC(N2CCOCC2)C1` (stereo unspecified), the IC50 [15] is reported as 5.17 µM, the IC50 [3] is reported as 1.87 µM and the inhibition [16] is reported as 27.6%. The inhibition [17] was 11.7%.

With `O=C(NCCN1CCOCC1)c1ccc2cc1OCCCCCOc1cc(ccc1F)-c1nc(ncc1F)N2` the inhibition [18] was 62.8%, the inhibition [19] was 56.5% and the IC50 [1] was 0.0011 µM. It also gave an IC50 [2] of 0.0662 µM, an IC50 [15] of 0.267 µM and an IC50 [3] of 0.115 µM. For the same compound, the Activity [20] was 73.4%.

For `O=C(c1ccc2cc1OCCCCOc1cc(ccc1F)-c1nc(ncc1F)N2)N1CCCNCC1`, the IC50 [15] was 1.94 µM, the IC50 [3] was 1.18 µM and the Activity [20] was -27%. For the same compound, the inhibition [16] was 27% and the inhibition [17] was 21.2%.

Compound `CN1CCC(NC(=O)c2ccc3cc2OCCCCCCOc2cc(ccc2F)-c2nc(ncc2F)N3)CC1` has an IC50 [1] of 0.0032 µM, an IC50 [2] of 0.0307 µM and an IC50 [3] of 0.135 µM.

In the case of `C=CC(=O)Nc1cc(Nc2nccc(-c3cn(C)c4ccccc34)n2)c(OC)cc1N(C)CCN(C)C` [OSIMERTINIB], the IC50 [15] is reported as 0.057 µM, the IC50 [3] is reported as […] and the IC50 [4] is reported as 4.69 µM. For the same compound, the Activity [21] was “Dose-Dependent Effect”, the Activity [22] was “Dose-Dependent Effect” and the Activity [23] was “inactive”. The Activity [24] was “inactive”, the Activity [25] was 10% and the viability at 0.125 µM [26] was 92.4%. The Activity [27] was 2.52%, the Activity [28] was 1.8% and the Activity [29] was 3.25%.

`O=C(NCCN1CCOCC1)c1ccc2cc1OCCOCCOc1cc(ccc1F)-c1nc(ncc1F)N2` gave an inhibition [18] of 68.7%, an inhibition [19] of 71.4% and an IC50 [1] of 0.0021 µM. The IC50 [2] was 0.01 µM, the IC50 [15] was 0.052 µM and the IC50 [3] was 0.054 µM.

`O=C(c1ccc2cc1OCCCCOc1cc(ccc1F)-c1nc(ncc1F)N2)N1CCC(N2CCOCC2)CC1` gave an IC50 [15] of 4.78 µM, an IC50 [3] of 2.68 µM and an Activity [20] of -34%. It also gave an inhibition [16] of 20.9% and an inhibition [17] of 9.1%.

`O=C(NCCN1CCOCC1)c1ccc2cc1OCCCCOc1cc(ccc1F)-c1nc(ncc1F)N2` gave an inhibition [18] of 77.3%, an inhibition [19] of 79.7% and an IC50 [1] of 0.0009 µM. For the same compound, the IC50 [2] was 0.0342 µM, the IC50 [15] was 0.182 µM and the IC50 [3] was 0.021 µM. The Activity [20] was 95.6%.

Work on `CN1CCN(CCNC(=O)c2ccc3cc2OCCCCCCOc2cc(ccc2F)-c2nc(ncc2F)N3)CC1` yielded an IC50 [1] of 0.0023 µM, an IC50 [2] of 0.0254 µM and an IC50 [3] of 0.143 µM.

For `CN(C)CCNC(=O)c1ccc2cc1OCCCCOc1cc(ccc1F)-c1nc(ncc1F)N2`, the IC50 [1] was 0.0011 µM, the IC50 [2] was 0.0032 µM and the IC50 [15] was 0.031 µM. For the same compound, the IC50 [3] was 0.026 µM and the Activity [20] was 82.6%.

Compound `O=C(NCC1CCNCC1)c1ccc2cc1OCCCCOc1cc(ccc1F)-c1nc(ncc1F)N2` has an IC50 [1] of 0.0021 µM, an IC50 [2] of 0.015 µM and an IC50 [15] of 0.343 µM. The IC50 [3] was 0.336 µM and the Activity [20] was 1.6%.
